Results as given in patent US11692194B2, “Modulating expression of polypeptides via new gene switch expression systems” (Precigen, Inc., priority 2017, dated 2023).
“Also recorded” adds a separate entry of the source.

Columns and labels:
[1] = test system: CD19-specific CAR-T cells co-expressing RTS-mbIL-15; assay: Survival of CD19 CAR/RTS-mbIL-15 T cells upon withdrawal of IL-2 and IL-21; assay type: cell-based, human; settings: veledimex 50 nM, ex vivo culture, % live cells by flow
Procedure: Multiple Sleeping Beauty transposon DNA plasmids encoding for RTS-membrane bound IL-15 (RTS-mbIL-15), CD19-specific chimeric antigen receptor (CD19 CAR) (Design 9, FIG. 2) were transfected into peripheral blood mononuclear cells (PBMC) along with plasmid DNA encoding for Sleeping Beauty transposase SB11 via nucleofection (FIG. 1). On day 0, 20 million PBMC were resuspended in 100 μL of Amaxa Human T cell Nucleofector solution (Cat. no. VPA-1002; Lonza, Basel, Switzerland) mixed with a total of 15 μg of transposons and 5 μg of transposase and nucleofected into cells. The following day (day1) cells were counted, and CAR expression was measured using flow cytometry. Cells were stimulated with either γ-irradiated (100 Gy) or mitomycin C treated K562 based AaPCs expressing CD19 on their surface at a 1:1 ratio. Cultures were supplemented with IL-21 (30 ng/ml) only for the first round of stimulation and subsequently with recombinant human IL-2 (50 IU/ml) and IL-21 (30 ng/ml) (Pepro Tech) for remaining stimulations. […] Cultures were also closely monitored for the outgrowth of NK cells (defined as CD3negCD56+ population) and were removed from the CAR T cell cultures when the percentage exceeded 10% of total cell populations using magnetic beads for CD56 (Stem Cell Technologies and/or Miltenyi Biotec), according to the manufacturer's instructions. […]

[2] = test system: RTS-IL-12 in EGFRvIII-CAR-T cells; assay: IL-12 induction in EGFRvIII-CAR/RTS-IL-12 T cells, ELISA of culture supernatant; assay type: cell-based
Excerpt: Sleeping Beauty transposons were designed as depicted in FIG. 22 to stably express EGFRvIII-specific CAR, a cell tag and RTS-IL-12. Transposon plasmids were electroporated in several donor T cells as previously described. EGFRvIII-CAR-T cells were selectively expanded ex vivo by successive rounds of stimulations every 7-10 days for up to 4 cycles with either γ-irradiated or mitomycin C treated AaPC that served as “feeder cells” at 1:1 ratio in media supplemented with IL-2 and IL-21. The AaPC cells used were K562-AaPC expressing EGFRvIII antigen. FIG. 26 depicts CAR expression in T cells from multiple donors as the CAR+ T cells are selectively expanded ex vivo.
To assay IL-12 induction in EGFRvIII-CAR-T cells, Pan T-cells at 24 h post nucleofection were treated with DMSO (control) or veledemix in the presence of AaPCs in media containing IL-21. After 48 hours post-nucleofection, culture supernatants were analyzed for IL-12 levels by ELISA.
Furthermore, the ability of RTS-IL-12/CAR-T cells to produce inducible IL-12 was assessed in presence or absence of antigen specific stimulation. EGFRvIII-CAR/RTS-IL-12 T cells were expanded ex vivo by three successive rounds of stimulation with EGFRvIII^+ AaPCs. […]

[3] = test system: inducible IL-12 constructs (XON-61 or XON-62) in EGFRvIII-CAR-T cells; assay: Veledimex ON-OFF cycling of IL-12 in EGFRvIII-CAR-T cells; assay type: cell-based
Procedure: For each ON-OFF cycle, veledimex was first added (ON) at previously mentioned concentrations (typically between 20-100 nM) to cell cultures for 2-3 days. An aliquot of cells was harvested and analyzed for expression (ON) of various proteins by flow cytometry and/or ELISA at noted time points. Remaining cell culture was then washed and resuspended in complete medium without veledimex (OFF) and cultured for up to 5 days. Aliquots of cells were harvested and analyzed for expression (OFF) at times mentioned by flow cytometry and/or ELISA as noted above. Veledimex ON-OFF cycle(s) can be repeated again with remaining cell culture by repeating the process.
The effect of repeated treatments and withdrawals of veledimex to EGFRvIII-CAR-T cells harboring an inducible IL-12 gene was determined in vitro both in the presence and absence of antigen specific T cell activation by co-culture with AaPCs. In the first cycle (ON-OFF) of ligand treatment, CAR-T cells (10^6/ml) expanded ex vivo by four successive rounds of stimulation with EGFRvIII^+ AaPCs were treated with DMSO or veledimex and cultured in the presence or absence of AaPCs in media containing IL-21 and IL-2. After 48 hours post-treatment, cells were washed thoroughly to remove ligand and cultured in a new culture vessel in media containing IL-21 and IL-2 for 5 days. Culture supernatants harvested between 24-120 hours post-treatment were then analyzed for expression of IL-12 and IFNγ.
In the second cycle (ON-OFF) of ligand treatment, CAR-T cells from cultures treated with DMSO or veledimex in the presence of AaPCs in cycle 1 were collected at 5 days after withdrawal of veledimex (in cycle 1) and subjected to a second cycle of ligand treatment with DMSO or veledimex in the presence or absence of antigen specific T cell activation by co-culture with AaPCs. After 48 hours post-treatment, cells were washed thoroughly to remove ligand and cultured in a new culture vessel in media containing IL-21 plus IL-2 for 5 days. Culture supernatants harvested between 24-120 hours post-treatment were then analyzed for expression of IL-12 and IFNγ.

With `CCC[C@@H](N(NC(=O)c1cccc(OC)c1CC)C(=O)c1cc(C)cc(C)c1)C(C)(C)C` [veledimex, N-[(1R)-1-(1,1-dimethylethyl)butyl]-N′-(2-ethyl-3-methoxybenzoyl)-3,5-dimethylbenzohydrazide] the “survival of CAR-T cells in absence of cytokines (IL-2 and IL-21)” value [1] was “improved survival of CAR-T cells”, the “veledimex induced IL-12 with versus without EGFRvIII^+ AaPCs” value ([2]; 100 nM veledimex, 48 hours, after three rounds of stimulation) was “greatly enhanced in presence of EGFRvIII antigen specific stimulation” and the “IL-12 expression in culture supernatant” value ([2]; T cells co-expressing CAR and RTS-IL-12, treated 24 h post nucleofection with AaPCs and IL-21) was “induced IL-12 expression”. For the same molecule, the “IL-12 induction in cycle 2 after veledimex versus DMSO in cycle 1” value ([3]; 48 h post-ligand treatment in cycle 2, with EGFRvIII^+ AaPCs) was “increased IL-12 induction”, the “IL-12 expression relative to DMSO” value ([3]; cycle 1, culture supernatants at 48 h post-treatment) was “increase in IL-12 expression” and the “levels of IL-12 induction with versus without antigen-specific stimulation” value ([3]; cycle 1, presence vs absence of AaPCs) was “enhanced in the presence of AaPC-mediated antigen-specific stimulation; also recorded: significantly lower in the absence of antigen-specific stimulation”. For the same molecule, the “control of IL-12 expression over two cycles of ligand treatment” value ([3]; prolonged culture, repeated addition and withdrawal) was “can be turned ON and OFF repeatedly; also recorded: can regulate IL-12 expression” and the “IL-12 expression after withdrawal of veledimex” value ([3]; withdrawal at 48 h post-treatment, presence and absence of AaPCs) was “reduction of IL-12 expression; also recorded: gradually reduced back to the baseline levels; also recorded: went down to baseline levels”.
